Reference: patent US20250206761A1, “HALOINDOLE MACROCYCLIC COMPOUNDS FOR THE TREATMENT OF CANCER” (Hoffmann-La Roche Inc., priority 2022, published 2025)

System: cryopreserved suspension hepatocytes from human
Test: Human hepatocyte stability assay
Assay type: in vitro ADME
Settings: for Clearance Category: human hepatocytes; for CL_hep (Human): human hepatocytes 1×10^6 cells/mL, 37° C.
Procedure: The hepatocyte stability assay measures the rate of disappearance of a compound from incubations with cryopreserved suspension hepatocytes from human. Positive controls, including Midazolam, Raloxifene and Dextromethorphan, are included in every experiment. Incubations consist of […] tested compound and suspension of human hepatocytes (1×10^6 cells/mL) in supplemented Williams' E Medium with 10% FBS and 0.5% Penicillin-streptomycin. The hepatocyte suspension was incubated with intermittent shaking 900 rpm at 37° C., in a 5% CO2 incubator. The reaction was stopped by adding methanol containing internal standard (2 μM Tolbutamide) at 2, 10, 20, 40, 60 and 120 minutes after compound addition, depletion of the parent compound was monitored by LC-MS/MS analysis.

Compound	Clearance Category	CL_hep (Human) [mL/min/kg]
CCn1c(-c2cc(N3CCN(CC(F)(F)F)CC3)cnc2[C@H](C)OC)c2c3cc(c(F)cc31)-c1csc(n1)C[C@H](NC(=O)[C@H](C(C)C)N1CCC3(CN(C(=O)[C@H](F)Cl)C3)C1=O)C(=O)N1CCC[C@H](N1)C(=O)OCC(C)(C)C2 (atropisomer, axis not shown; (M)) [Example 37, (2S)-2-[2-[(2R)-2-chloro-2-fluoro-acetyl]-5-oxo-2,6-diazaspiro[3.4]octan-6-yl]-N-[(7S,13S)-21-ethyl-24-fluoro-(20M)-20-[2-[(1S)-1-methoxyethyl]-5-[4-(2,2,2-trifluoroethyl)piperazin-1-yl]-3-pyridyl]-17,17-dimethyl-8,14-dioxo-15-oxa-4-thia-9,21,27,28-tetrazapentacyclo[17.5.2.1^2,5.1^9,13.0^22,26]octacosa-1(25),2,5(28),19,22(26),23-hexaen-7-yl]-3-methyl-butanamide]	low (CL_hep (mL/min/kg)<6.96 is low clearance)	2.4
CC(C)[C@@H](C(=O)N[C@H]1Cc2cc(O)cc(c2)-c2ccc3c(C(C)(C)C#N)cn(c3c2)CC(C)(C)COC(=O)[C@@H]2CCCN(N2)C1=O)N1CCC2(CN(C(=O)CCl)C2)C1=O [RM44, reference compound]	medium (16.24>CL_hep (mL/min/kg)>6.96 is medium clearance)	14.7
